One experiment has as its target T1, CK1α (Homo sapiens, UniProt P48729+Q96SW2).
T1 construct: HEK293 clonal line with CRISPR KI HiBiT tag on CSNK1A1; host or cells: HEK293 clonal line, CRISPR HiBiT knock-in at CSNK1A1, stably expressing LgBiT
The experiment is described as follows: CK1α NanoBiT assay (HiBiT-tagged CSNK1A1 in HEK293 clonal line). It is filed as cell-based. Conditions: HEK293 HiBiT-CSNK1A1/LgBiT cells, 24 h incubation, luminescence. The method, then:
HEK293 clonal line with CRISPR KI HiBiT tag on CSNK1A1 and stably expressing LgBiT protein was obtained from Promega (Madison, WI). Cells were plated at 5000 cells per well using Multiflo (BioTek) in 384-well white solid bottom plates (Corning, 3570BC) in […] volume in DMEM media (DMEM, high glucose, HEPES, no phenol red (ThermoFisher Scientific, 21063029)) containing 10% FBS (Corning, 35-075-CV), 1% Penicillin/Streptomycin ((ThermoFisher Scientific, 15140-122), and 0.2% Endurazine (Nano-Glo Endurazine Live Cell Substrate (Promega, N2571)). Cells were incubated for 16 hours at 37C, 5% CO2. Depending on experiment 25 or 75 nL of a compound at 10 mM were added into the plate using an Echo®650 liquid handler (Labcyte) to achieve final concentration of […] in wells. Cells were incubated at 37° C., 5% CO2 for 24 hours followed by signal was read on Pherastar FSX using “LUM plus” optic module.
Data analysis was performed using Scinamic (Scinamic, Cambridge, MA).
Luminescence response (R) was calculated by the formula: response=100*(S−N)/(P−N), where S is the signal of the well, N and P the mean negative and positive control values, respectively, of the same plate. The luminescence response was then fitted in Scinamic using a 3-parameter agonist logistic fit (hillslope=1, EC50>0, top/bottom unconstrained).
DC50 data are reported in Table 2 for compounds in Table 1. In Table 2 below, According to the code, A represents a DC50 value of ≤0.1 μM, B represents a DC50 value>0.1 μM and ≤1 μM, C represents an DC50 value>1 μM.

A further experiment deals with CRBN/DDB1 (Homo sapiens, UniProt Q96SW2). The experiment is described as follows: HTRF binding assay (thalidomide probe displacement from CRBN/DDB1). Conditions: CRBN/DDB1 2.5 nM, Cy5-Thalidomide 100 nM, 30 min; geometric mean; read-out: HTRF_Thali_Disp_DR—geo_IC50. The text has this:
Binding of test compounds to CRBN/DDB1 was monitored in an HTRF assay using 1-[5-({2-[2-(2-{[2-(2,6-dioxopiperidin-3-yl)-1,3-dioxo-2,3-dihydro-1H-isoindol-4-yl]oxy}acetamido)ethoxy]ethyl}carbamoyl)pentyl]-3,3-dimethyl-2-[(1E,3E)-5-[(2E)-1,3,3-trimethyl-5-sulfo-2,3-dihydro-1H-indol-2-ylidene]penta-1,3-dien-1-yl]-3H-indol-1-ium-5-sulfonate as a fluorescent probe. In this assay, compounds displace the fluorescently labeled thalidomide-based probe bound to CRBN and fluorescence is monitored with increasing compound concentration. Assays were conducted in Greiner white 384 well HiBase plates (Cat. No 784075-25) in 10 μL total volume. A one pot detection solution of CRBN/DDB1 (2.5 nM), anti-His Terbium Cryptate Gold (1×, PerkinElmer Cat. #: 61HI2TLB), and Cy5-Thalidomide (100 nM, Tenova Cat.: T52461) was prepared in 20 mM HEPES, 20 mM NaCl, 0.2 mM TCEP, 0.2 mM EDTA, and 0.005% Tween20 was dispensed to each assay plate. Test compounds were stored in dry, ambient temperatures at 10 mM. A 10-point, 1:3 dilution series was prepared from 10 mM stock concentrations in Echo-compatible LDV plates. 10 nL of each compound dilution series was dispensed into assays wells using an Echo 650 (Labcyte inc. USA). 10 nL of 10 mM lenalidomide (Selleckchem Cat no. S1029) was transferred into the active-control wells for the assay and 10 nL of DMSO was transferred into the negative control wells. The assay was then allowed to incubate for 30 min at ambient temperature after transferring the test compounds. Plate measurements were taken on a Pherastar FSX (BMG Labtech, Germany) using the HTRF Red filter (Ex. 337 nm, eml: 620 nm, em2: 665 nm) (Flashes: 50, Integration time: 60-400 μs, Z-height: 10 mm, Ratio-multiplier: 10,000). Analysis, HTRF ratio and IC50 values were derived using KNIME analytics (KNIME Zurich) transformation and fitting within Collaborative Drug Discovery (Collaborative Drug Discovery USA) using a 4-parameter logistic fit. HTRF ratio calculation was performed using the following formula: […]
where em665nm represents the measured emission at 665 nm upon excitation at 337 nm and em620nm the measured emission at 620 nm upon excitation at 337 nm. The 4 parameter logistic fitting model was performed using the following formula: […]
where Y represents the HTRF ratio response (as defined previously), X the compound concentration in μM, Ymin the minimum response plateau, Ymax the maximum response plateau, IC50 the concentration of agonist that gives a response half way between Ymin and Ymax and HillSlope the steepness of the family of curves. No fitting model constraints was applied on Ymin, or Ymax whilst IC50>0 and −0.5>HillSlope>−3
Ki values were derived from the geometric mean of the IC50 values using the Cheng-Prusoff transformation:
where [L] represents the concentration of fluorescent probe in μM, Kd the affinity (binding constant) of the fluorescent probe in units of μM and IC50 the concentration of agonist that gives a response halfway between Ymin and Ymax (as described in 1.2.1)
Analysis and IC50 values were derived using KNIME analytics (KNIME, Zurich) transformation and fitting within Collaborative Drug Discovery (Collaborative Drug Discovery, USA) as described in 1.2.1. Ki values were derived from the geometric mean of the IC50 values using the Cheng-Prusoff transformation as described in 2.2.2. Data was visualized in GraphPad Prism 8.1.2 (GraphPad, USA) and reported as mean and standard deviation. Microsoft Office Excel 2012 (Redmond, WA) was used for calculation of mean and standard deviation.
IC50 data are reported in Table 3 for compounds in Table 1. In Table 3 below, According to the code, A represents a IC50 value of ≤0.1 μM, B represents a IC50 value≥0.1 μM and ≤1 μM, C represents an IC50 value>1 μM.
(In general: In TR-FRET formats the signal depends on donor and acceptor labels being close together.)

A further experiment concerns SKCO1. The experiment is described as follows: GI50 growth inhibition, CyQUANT, SKCO1. It is filed as cell-based. Conditions: Homo sapiens, SK-CO-1, SKCO1 cells, 120 to 168 hours. The method, then: (§1) SKCO1, LS180, and LS174T cell lines were purchased from ATCC. CW2 cell line was purchased from Riken. GP2D cell line was purchased from Sigma/ECACC. All cell lines were cultured in manufacturer's recommended media at 37° C., 5% CO2. Briefly, cells were suspended in 200 μL of media and seeded at 300 to 1,800 cells per well in tissue culture treated 96-well plates with black walls and clear bottom. Plates were incubated overnight and initial (T0) read was performed the following day using CyQUANT Direct Cell Proliferation Assay Kit (Thermo Fisher Scientific) according to manufacturer's protocol. All compounds were solubilized in DMSO and prepared at 3-fold serial dilution, using 9 points starting at 30 μM as highest concentration, administered to cells and incubated for 120 to 168 hours, at which point CyQUANT assay measurement was performed using Acumen Cellista instrument (Ex/Em 480/520 nm). Media-only wells were used as blank, and 0.3% DMSO was used as DMSO-treated cell control. Growth inhibition (percent response) was calculated using the following formula in Excel: “=if ([Compound treated Day N]>[Untreated Day 0, AVG], ([Compound treated Day N]−[Untreated Day 0, AVG])/([Untreated Day N]−[Untreated Day 0, AVG])*100, ([Compound Treated Day N]−[Untreated Day 0, AVG])/([Untreated Day 0, AVG])*100)”. GI50 is the response corresponding to the 50% of untreated control.
(§2) GI50 data are reported in Tables 4a, 4b, 4c, 4d, and 4e for compounds in Table 1. In Tables 4a, 4b, 4c, 4d, and 4e below, According to the code, A represents a GI50 value of ≤0.1 μM, B represents a GI50 value>0.1 μM and ≤1 μM, C represents an GI50 value>1 μM.

Another experiment has as its system CW2. The experiment can be described thus: GI50 growth inhibition, CyQUANT, CW2. The experiment is classed as cell-based. Conditions: Homo sapiens, CW-2, CW2 cells, 120 to 168 hours. How it is done:
as §1, §2

The subject of the next experiment is GP2D. The experiment can be described thus: GI50 growth inhibition, CyQUANT, GP2D. It is filed as cell-based. Conditions: GP2D cells, 120 to 168 hours. How it is done: as §1, §2
The test system of the next experiment is LS180. The experiment is described as follows: GI50 growth inhibition, CyQUANT, LS180. Conditions: Homo sapiens, LS180 cells, 120 to 168 hours. The experiment is classed as cell-based. How it is done: as §1, §2
The subject of the next experiment is LS174T. The experiment is described as follows: GI50 growth inhibition, CyQUANT, LS174T. The experiment is classed as cell-based. Particulars: Homo sapiens, LS174T cells, 120 to 168 hours. The method, then: as §1, §2

Where a name gives a salt, the structure may show the parent alone.

T1 sequence (P48729 whole entry): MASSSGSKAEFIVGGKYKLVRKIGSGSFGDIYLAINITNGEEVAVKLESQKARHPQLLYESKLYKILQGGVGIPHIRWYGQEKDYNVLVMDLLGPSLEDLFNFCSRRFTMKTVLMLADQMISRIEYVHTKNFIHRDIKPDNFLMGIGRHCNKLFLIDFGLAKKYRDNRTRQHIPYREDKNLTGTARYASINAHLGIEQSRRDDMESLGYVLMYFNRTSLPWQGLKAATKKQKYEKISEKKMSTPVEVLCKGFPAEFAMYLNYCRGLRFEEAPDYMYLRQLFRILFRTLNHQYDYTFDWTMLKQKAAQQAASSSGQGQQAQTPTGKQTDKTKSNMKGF
T1 sequence (Q96SW2 whole entry): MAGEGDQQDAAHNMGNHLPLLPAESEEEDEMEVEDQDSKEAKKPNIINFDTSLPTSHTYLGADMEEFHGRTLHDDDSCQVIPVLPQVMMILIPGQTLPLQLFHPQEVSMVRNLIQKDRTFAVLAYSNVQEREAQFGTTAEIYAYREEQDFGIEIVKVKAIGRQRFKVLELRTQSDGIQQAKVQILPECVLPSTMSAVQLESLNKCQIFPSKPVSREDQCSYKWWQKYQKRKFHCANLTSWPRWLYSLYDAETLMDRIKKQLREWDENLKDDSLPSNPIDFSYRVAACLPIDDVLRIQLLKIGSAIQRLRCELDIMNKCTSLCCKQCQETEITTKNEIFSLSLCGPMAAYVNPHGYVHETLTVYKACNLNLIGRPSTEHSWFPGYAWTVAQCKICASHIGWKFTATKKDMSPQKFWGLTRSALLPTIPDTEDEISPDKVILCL
T1 sequence (Q16531 2-1140 partner limits assumed): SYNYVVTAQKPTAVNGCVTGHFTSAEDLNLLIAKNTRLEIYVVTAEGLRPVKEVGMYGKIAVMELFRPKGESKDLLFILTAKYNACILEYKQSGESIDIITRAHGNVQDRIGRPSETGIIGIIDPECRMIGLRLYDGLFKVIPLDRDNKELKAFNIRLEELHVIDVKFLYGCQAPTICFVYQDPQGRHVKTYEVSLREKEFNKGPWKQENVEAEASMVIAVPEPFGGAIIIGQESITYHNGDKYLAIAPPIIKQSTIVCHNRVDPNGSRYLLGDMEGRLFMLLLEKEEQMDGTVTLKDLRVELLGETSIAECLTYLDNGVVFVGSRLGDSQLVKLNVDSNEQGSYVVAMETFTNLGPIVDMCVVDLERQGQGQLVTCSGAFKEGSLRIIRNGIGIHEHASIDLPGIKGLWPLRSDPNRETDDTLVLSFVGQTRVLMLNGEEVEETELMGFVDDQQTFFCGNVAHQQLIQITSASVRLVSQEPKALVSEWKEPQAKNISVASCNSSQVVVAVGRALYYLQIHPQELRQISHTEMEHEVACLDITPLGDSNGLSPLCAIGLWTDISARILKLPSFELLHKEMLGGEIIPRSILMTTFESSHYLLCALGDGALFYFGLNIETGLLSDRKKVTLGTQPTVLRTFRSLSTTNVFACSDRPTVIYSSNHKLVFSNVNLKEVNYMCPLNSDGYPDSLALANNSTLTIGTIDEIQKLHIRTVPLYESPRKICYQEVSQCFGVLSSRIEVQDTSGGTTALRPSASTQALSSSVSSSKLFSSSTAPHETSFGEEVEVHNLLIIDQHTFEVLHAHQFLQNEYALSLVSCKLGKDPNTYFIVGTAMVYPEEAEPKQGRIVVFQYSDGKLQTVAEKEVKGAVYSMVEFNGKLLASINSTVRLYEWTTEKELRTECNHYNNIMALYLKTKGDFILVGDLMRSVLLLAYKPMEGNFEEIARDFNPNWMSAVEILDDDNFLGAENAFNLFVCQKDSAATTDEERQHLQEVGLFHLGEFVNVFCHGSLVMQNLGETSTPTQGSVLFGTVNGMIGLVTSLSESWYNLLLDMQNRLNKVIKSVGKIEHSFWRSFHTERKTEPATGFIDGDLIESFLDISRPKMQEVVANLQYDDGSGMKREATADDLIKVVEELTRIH
Sequence of CRBN/DDB1 (Q96SW2 whole entry): as the sequence (Q96SW2 whole entry) above
Sequence of CRBN/DDB1 (Q16531 whole entry partner): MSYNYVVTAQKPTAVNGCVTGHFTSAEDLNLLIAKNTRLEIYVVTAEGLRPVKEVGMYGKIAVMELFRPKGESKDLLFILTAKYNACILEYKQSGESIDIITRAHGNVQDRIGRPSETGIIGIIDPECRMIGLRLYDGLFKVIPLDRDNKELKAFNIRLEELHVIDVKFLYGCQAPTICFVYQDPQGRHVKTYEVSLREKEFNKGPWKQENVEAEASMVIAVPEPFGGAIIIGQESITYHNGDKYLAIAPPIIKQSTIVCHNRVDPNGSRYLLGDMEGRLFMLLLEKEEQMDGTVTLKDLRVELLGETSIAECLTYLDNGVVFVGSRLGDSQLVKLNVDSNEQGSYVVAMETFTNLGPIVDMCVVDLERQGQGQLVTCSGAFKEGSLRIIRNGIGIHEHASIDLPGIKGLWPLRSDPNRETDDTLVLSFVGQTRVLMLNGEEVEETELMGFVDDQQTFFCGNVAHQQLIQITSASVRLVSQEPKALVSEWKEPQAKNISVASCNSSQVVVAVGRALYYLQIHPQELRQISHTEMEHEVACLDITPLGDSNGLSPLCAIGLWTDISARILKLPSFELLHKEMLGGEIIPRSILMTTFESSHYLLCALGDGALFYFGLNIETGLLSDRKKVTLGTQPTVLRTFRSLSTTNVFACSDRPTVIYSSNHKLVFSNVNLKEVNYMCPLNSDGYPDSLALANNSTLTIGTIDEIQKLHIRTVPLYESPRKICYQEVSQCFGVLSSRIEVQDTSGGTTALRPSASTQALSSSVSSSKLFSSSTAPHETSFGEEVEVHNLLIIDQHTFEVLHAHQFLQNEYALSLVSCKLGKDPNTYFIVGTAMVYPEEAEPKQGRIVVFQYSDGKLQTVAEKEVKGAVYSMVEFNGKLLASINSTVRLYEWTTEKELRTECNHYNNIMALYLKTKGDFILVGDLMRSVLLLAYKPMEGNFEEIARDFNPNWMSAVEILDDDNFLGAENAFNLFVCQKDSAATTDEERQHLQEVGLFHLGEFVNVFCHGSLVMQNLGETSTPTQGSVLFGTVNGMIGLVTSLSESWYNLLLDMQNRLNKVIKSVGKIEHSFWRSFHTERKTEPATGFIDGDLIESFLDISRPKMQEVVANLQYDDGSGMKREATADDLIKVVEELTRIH

Compound `O=C1CCC(N2Cc3cc(NC(=O)c4ccccc4C4CCCC4)ccc3C2=O)C(=O)N1` (centres unmarked) [Compound 128, 2-cyclopentyl-N-(2-(2,6-dioxopiperidin-3-yl)-1-oxoisoindolin-5-yl)benzamide formate] gave a DC50 on CK1α above 1 µM. For the same compound, on CRBN/DDB1, the IC50 is 100 to 1000 nM.

As for `O=C1CCC(N2Cc3cc(NC(=O)c4cccc(F)c4)ccc3C2=O)C(=O)N1` (centres unmarked) [Compound 142, N-(2-(2,6-dioxopiperidin-3-yl)-1-oxoisoindolin-5-yl)-3-fluorobenzamide], on CK1α, the DC50 is below 0.1 µM. Further, on CRBN/DDB1, the IC50 lay within 100 to 1000 nM.

Consider `O=C1CCC(N2Cc3cc(N4C(=O)c5ccccc5C4=O)ccc3C2=O)C(=O)N1` (centres unmarked) [Compound 116, 2′-(2,6-dioxopiperidin-3-yl)-[2,5′-biisoindoline]-1,1′,3-trione], for which the DC50 on CK1α is above 1 µM. Besides, the IC50 on CRBN/DDB1 was 100 to 1000 nM.

At CK1α, `O=C1CCC(N2Cc3cc(NC(=O)C4CC(c5ccccc5)C4)ccc3C2=O)C(=O)N1` (centres unmarked) [Compound 117, N-(2-(2,6-dioxopiperidin-3-yl)-1-oxoisoindolin-5-yl)-3-phenylcyclobutanecarboxamide] returned a DC50 below 0.1 µM. Also, at CRBN/DDB1, the IC50 lay within 100 to 1000 nM.

Compound `COCc1c(C(=O)Nc2ccc3c(c2)CN(C2CCC(=O)NC2=O)C3=O)ncn1-c1ccccc1` (centres unmarked) [Compound 159, N-(2-(2,6-dioxopiperidin-3-yl)-1-oxoisoindolin-5-yl)-5-(methoxymethyl)-1-phenyl-1H-imidazole-4-carboxamide] gave a DC50 on CK1α of 0.1 to 1 µM. Also, the IC50 on CRBN/DDB1 was in the range of 100 to 1000 nM.

Turning to `CC(C)c1ccccc1C(=O)Nc1ccc2c(c1)CN(C1CCC(=O)NC1=O)C2=O` (centres unmarked) [Compound 140, N-(2-(2,6-dioxopiperidin-3-yl)-1-oxoisoindolin-5-yl)-2-isopropylbenzamide], the DC50 on CK1α was 0.1 to 1 µM. For the same compound, at CRBN/DDB1, the IC50 lay within 100 to 1000 nM.

`Cc1nc(C(=O)Nc2ccc3c(c2)CN(C2CCC(=O)NC2=O)C3=O)cn1-c1ccccc1` (centres unmarked) [Compound 155, N-(2-(2,6-dioxopiperidin-3-yl)-1-oxoisoindolin-5-yl)-2-methyl-1-phenyl-1H-imidazole-4-carboxamide]: the DC50 on CK1α is below 0.1 µM. At CRBN/DDB1, the IC50 was at most 100 nM.

The compound `O=C1CCC(N2Cc3cc(NC(=O)c4cccc(C(F)(F)F)c4)ccc3C2=O)C(=O)N1` (centres unmarked) [Compound 125, N-(2-(2,6-dioxopiperidin-3-yl)-1-oxoisoindolin-5-yl)-3-(trifluoromethyl)benzamide] registered a DC50 on CK1α below 0.1 µM. Moreover, the IC50 on CRBN/DDB1 lay in the range of 100 to 1000 nM.

At CK1α, `O=C1CCC(N2Cc3cc(NC(=O)c4cccc5c4CC(=O)N5)ccc3C2=O)C(=O)N1` (centres unmarked) [Compound 124, N-(2-(2,6-dioxopiperidin-3-yl)-1-oxoisoindolin-5-yl)-2-oxoindoline-4-carboxamide] displayed a DC50 of 0.1 to 1 µM. Also, on CRBN/DDB1, the IC50 is at most 100 nM.

The term GI50 denotes the concentration at which growth is held to half of that of the control. `O=C1CCC(N2Cc3cc(NC(=O)c4cn(-c5ccccc5)cn4)ccc3C2=O)C(=O)N1` (centres unmarked) [Compound 109, N-(2-(2,6-dioxopiperidin-3-yl)-1-oxoisoindolin-5-yl)-1-phenyl-1H-imidazole-4-carboxamide] yielded a DC50 at CK1α below 0.1 µM. For the same compound, on CRBN/DDB1, the IC50 lay in the range of 100 to 1000 nM. For the same compound, the GI50 with SKCO1 was below 100 nM; in the experiment with CW2, below 100 nM; with GP2D it was below 100 nM; in the experiment on LS180 it was 100 to 1000 nM; in the experiment with LS174T, below 100 nM.

Compound `Cc1cc(CC(=O)Nc2ccc3c(c2)CN(C2CCC(=O)NC2=O)C3=O)ccc1Cl` (centres unmarked) [Compound 144, 2-(4-chloro-3-methylphenyl)-N-(2-(2,6-dioxopiperidin-3-yl)-1-oxoisoindolin-5-yl)acetamide] displayed a DC50 at CK1α of 0.1 to 1 µM. For the same compound, the IC50 at CRBN/DDB1 is 100 to 1000 nM.

Take `O=C1CCC(N2Cc3cc(NC(=O)c4ccccn4)ccc3C2=O)C(=O)N1` (centres unmarked) [Compound 133, N-(2-(2,6-dioxopiperidin-3-yl)-1-oxoisoindolin-5-yl)]: the DC50 at CK1α lay within 0.1 to 1 µM. The IC50 at CRBN/DDB1 lay in the range of 100 to 1000 nM.

The values are drawn from patent US20250115582A1, “MOLECULAR GLUE DEGRADERS AND METHODS OF USING THE SAME” (Monte Rosa Therapeutics, Inc., priority 2022, published 2025).
